# How the values were obtained:
# [1] = system: Escherichia coli ATCC 25922; assay: Rapid antibiotic susceptibility test (RAST) in microfluidic agarose channel (MAC), MIC by single-cell time-lapse imaging; format: cell-based; settings: E. coli ATCC 25922, RAST method in MAC; for MIC: Escherichia coli, ATCC25922
# Experimental: Radial microfluidic channels with six branches were formed using soft-lithography. First, SU8 mold (2015 SU8, Microchem) was fabricated by employing photolithography. Polydimethylsiloxane (PDMS, Dow Corning) was mixed with a curing agent (10:1, w/w) and poured into the SU8. After baking at 150° C. for 10 min, the PDMS was peeled off and attached to the PDMS-coated slide glass by O2 plasma treatment to obtain a radial microfluidic channel chip capable of testing antibiotics having five concentrations and a control with no antibiotic. There were six main channels that carried one side-branched channel each. […] A mixture of agarose and bacteria was allowed to flow in the main channels, and the bioactive agents were allowed to flow in the respective side-branched channels. In the middle of each main channel, there were anchors in the form of micro-sized posts for forming an interface between the agarose and each of the bioactive agents. The posts blocked the agarose from flowing into the side-branched channel. The sizes of the posts and the pitches between the posts were determined by mathematical calculations. For appropriate hydrophobicity to occur in the channel, the channel was prepared one day before experiment to increase the surface tension after O2 plasma treatment. Agarose is solidified at a temperature lower than 36° C. The cultured bacteria were mixed with 2% agarose (1:3, v/v) at 45° C. and immediately injected into the microfluidic channels. The agarose-bacteria mixture was solidified at 25° C. for 1 min. The obtained microfluidic agarose channel (MAC) chip was placed on a hot plate and incubated at 37° C. To provide nutrients, liquid CAMHB medium was supplied through the side-branched channels. The growth of the bacteria was monitored using a microscope. Bacterial growth was not inhibited and could be clearly monitored in the MAC system. Bacterial cell images were taken with a CCD camera; the images were then processed to determine the MIC values of the antibiotics. The image data were transformed into digital data using an image processing program, which is coded in Matlab. For the calculations, RGB images were transformed into grey formatted images. The background data were eliminated to obtain sharp data without noise. Then, the contrast was enhanced to change the processed images into binary format images. […] The Matlab program calculated the areas that were occupied by each bacterium. A longer incubation time allowed each bacterium to grow and occupy more area. The occupied areas were measured using the image processing program. […] Bacterial growth was monitored by using a microscope (40×) and a CCD camera. Images of bacterial growth were taken every hour and were analyzed by using the image processing program. […]
# [2] = system: Pseudomonas aeruginosa ATCC 27853; assay: as above; format: cell-based; settings: P. aeruginosa ATCC 27853, RAST method in MAC; for MIC: Pseudomonas aeruginosa, ATCC27853
# Experimental: (§1) Radial microfluidic channels with six branches were formed using soft-lithography. First, SU8 mold (2015 SU8, Microchem) was fabricated by employing photolithography. Polydimethylsiloxane (PDMS, Dow Corning) was mixed with a curing agent (10:1, w/w) and poured into the SU8. After baking at 150° C. for 10 min, the PDMS was peeled off and attached to the PDMS-coated slide glass by O2 plasma treatment to obtain a radial microfluidic channel chip capable of testing antibiotics having five concentrations and a control with no antibiotic. There were six main channels that carried one side-branched channel each. […] A mixture of agarose and bacteria was allowed to flow in the main channels, and the bioactive agents were allowed to flow in the respective side-branched channels. In the middle of each main channel, there were anchors in the form of micro-sized posts for forming an interface between the agarose and each of the bioactive agents. The posts blocked the agarose from flowing into the side-branched channel. The sizes of the posts and the pitches between the posts were determined by mathematical calculations. For appropriate hydrophobicity to occur in the channel, the channel was prepared one day before experiment to increase the surface tension after O2 plasma treatment. Agarose is solidified at a temperature lower than 36° C. The cultured bacteria were mixed with 2% agarose (1:3, v/v) at 45° C. and immediately injected into the microfluidic channels. The agarose-bacteria mixture was solidified at 25° C. for 1 min. The obtained microfluidic agarose channel (MAC) chip was placed on a hot plate and incubated at 37° C. To provide nutrients, liquid CAMHB medium was supplied through the side-branched channels. The growth of the bacteria was monitored using a microscope. Bacterial growth was not inhibited and could be clearly monitored in the MAC system. Bacterial cell images were taken with a CCD camera; the images were then processed to determine the MIC values of the antibiotics. The image data were transformed into digital data using an image processing program, which is coded in Matlab. For the calculations, RGB images were transformed into grey formatted images. The background data were eliminated to obtain sharp data without noise. Then, the contrast was enhanced to change the processed images into binary format images. […] The Matlab program calculated the areas that were occupied by each bacterium. A longer incubation time allowed each bacterium to grow and occupy more area. The occupied areas were measured using the image processing program. 200 μl of Mueller-Hinton agar including 5×10^8 cells/ml bacterial cells and 600 μl of 2% liquid agarose at 45° C. was mixed thoroughly by a vortex generator (vortex Genie 2). The agarose-bacteria mixture was placed in the main channels of the microfluidic channel system using a syringe pump (KdScientific) at stable flow rate (2 ml/hr) to prevent bursting into the side-branched channels. After the liquid agarose was solidified at room temperature to immobilize the bacteria in the main channels, the MHA medium containing the antibiotic was injected into the side-branched channels using the syringe pump at a rate of 10 μl/hr to diffuse into the agarose-bacteria mixture. Bacterial growth was monitored by using a microscope (40×) and a CCD camera. Images of bacterial growth were taken every hour and were analyzed by using the image processing program. […] The obtained MIC values were verified by the conventional method (microdilution method) and compared with the MIC data of the CLSI. […] The images of the left group are RGB images before processing, and the images of the right group are images after processing for clear observation. After image processing, the bacteria that occupied the area were measured and plotted on the graph for different concentrations of gentamicin according to the incubation time. […] The MIC values were in the MIC ranges of the CLSI data.
# [3] = system: Staphylococcus aureus ATCC 29213; assay: as above; format: cell-based; settings: S. aureus ATCC 29213, RAST method in MAC; for MIC: Staphylococcus aureus, ATCC29213
# Experimental: as §1
# [4] = system: P. aeruginosa ATCC 27853; settings: CLSI range; cited from earlier work
# [5] = system: E. coli ATCC 25922; settings: CLSI range; cited from earlier work
# [6] = system: S. aureus ATCC 29213; settings: CLSI range; cited from earlier work
# [7] = system: P. aeruginosa ATCC 27853 biofilm; assay: Antibiotic susceptibility of biofilms in the MAC system; format: cell-based, Pseudomonas aeruginosa; settings: biofilm formation by 4 hr aging in the MAC system
Molecule,MIC [1],MIC [2],MIC [3],"MIC, CLSI [4]","MIC, CLSI [5]","MIC, CLSI [6]",MIC value after biofilm formation [7],"MIC, RAST [1]","MIC, RAST [2]","MIC, RAST [3]"
NCC[C@H](O)C(=O)N[C@@H]1C[C@H](N)[C@@H](O[C@H]2O[C@H](CN)[C@@H](O)[C@H](O)[C@H]2O)[C@H](O)[C@H]1O[C@H]1O[C@H](CO)[C@@H](O)[C@H](N)[C@H]1O [Amikacin],4 µg/mL,4 µg/mL,4 µg/mL,1 to 4 µg/mL,0.5 to 4 µg/mL,1 to 4 µg/mL,–,–,–,–
CCn1cc(C(=O)O)c(=O)c2cc(F)c(N3CCNCC3)cc21 [Norfloxacin],0.03 µg/mL,2 µg/mL,0.5 µg/mL,1 to 4 µg/mL,0.03 to 0.12 µg/mL,0.5 to 2 µg/mL,32 µg/mL,–,–,–
CN(C)[C@@H]1C(O)=C(C(N)=O)C(=O)[C@@]2(O)C(O)=C3C(=O)c4c(O)cccc4[C@@](C)(O)[C@H]3C[C@@H]12 [Tetracycline],1 µg/mL,32 µg/mL,0.5 µg/mL,–,–,–,–,–,–,–
gentamicin [Geninmycin],–,–,–,0.5 to 2 µg/mL,0.25 to 1 µg/mL,0.12 to 1 µg/mL,–,1 µg/mL,2 µg/mL,1 µg/mL
